Reference: US12144874B2, “Synthesis and composition of photodynamic therapeutic agents for the targeted treatment of cancer” (On Target Laboratories, LLC, priority 2015, dated 2024)
Like-named read-outs stand apart in the source and are kept apart here. One block for each molecule: values may come before it.

Tested on: KB cells
Settings: for IC50: Table 3, nucleus-targeted modified PDT agents
[1] = Table 2, mitochondrial-targeted modified PDT agents, free drugs in DMSO, 2 h incubation, laser 32 min, then 24 h
[2] = free drugs in DMSO, 2 h incubation, laser 32 min, then 24 h
[3] = Table 8, folate-targeted releasable visudyne conjugates

SMILES: CC[C@H]1c2cc3[nH]c4c(c3C)C(=O)C(C(=O)OC)c4c3nc(cc4[nH]c(cc(n2)[C@@H]1C)c(C(C)=O)c4C)[C@@H](C)[C@@H]3CCC(=O)NNC(=O)OCCSSC[C@H](NC(=O)CCOCCOCCOCCOCCOCCOCCOCCOCCNC(=O)CC[C@H](NC(=O)c1ccc(NCc2cnc3nc(N)[nH]c(=O)c3n2)cc1)C(=O)O)C(=O)O (single isomer, unassigned) [Compound 76d]
EC50 (2 h): 339 nM

EC50 (Table 1, non-targeted PDT agents, free drugs in DMSO, 2 h incubation, laser 6 mW/cm^2, 12 J/cm^2, 32 min, then 24 h): Not active
SMILES: Oc1cccc(-c2c3nc(c(-c4cccc(O)c4)c4ccc([nH]4)c(-c4cccc(O)c4)c4nc(c(-c5cccc(O)c5)c5ccc2[nH]5)CC4)C=C3)c1 [Compound 6, Foscan, reference compound]

EC50 [1]: 23.1 nM
SMILES: CC[C@H]1c2cc3[nH]c4c(c3C)C(=O)C(C(=O)OC)c4c3nc(cc4[nH]c(cc(n2)[C@@H]1C)c(C(C)=O)c4C)[C@@H](C)[C@@H]3CCC(=O)NCCC[C@@H](C(=O)OC(C)(C)C)[N+](C)(C)C (stereo partly shown) [Compound 11b]

EC50 [1]: 15.4 nM
SMILES: CC[C@H]1c2cc3[nH]c4c(c3C)C(=O)C(C(=O)OC)c4c3nc(cc4[nH]c(cc(n2)[C@@H]1C)c(C(C)=O)c4C)[C@@H](C)[C@@H]3CCC(=O)NCCC[C@@H](C(=O)O)[N+](C)(C)C (stereo partly shown) [Compound 12b]

EC50 [1]: 550 nM
SMILES: CC[C@H]1c2cc3[nH]c4c(c3C)C(=O)C(C(=O)OC)c4c3nc(cc4[nH]c(cc(n2)[C@@H]1C)c(C(C)=O)c4C)[C@@H](C)[C@@H]3CCC(=O)N[C@@H](CCC(=O)NC1C(O)OC(CO)C(O)C1O)C(=O)O (stereo partly shown) [Compound 19]

IC50 [2]: Not active*
SMILES: CC[C@H]1C2=Cc3c(C)c(C(=O)NNC(=O)Nc4cccc(S(=O)(=O)O)c4)c4[n]3[Pd][n]3c(c(C)c(C(C)=O)c3=CC(=N2)[C@@H]1C)=CC1=NC(=C4CC(=O)OC)[C@@H](CCC(=O)O)[C@@H]1C [Compound 39]

IC50 [2]: 4080 nM
SMILES: CC[C@H]1c2cc3[nH]c4c(c3C)C(=O)C(C(=O)OC)c4c3nc(cc4[nH]c(cc(n2)[C@@H]1C)c(C(C)=O)c4C)[C@@H](C)[C@@H]3CCC(=O)N[C@@H](CC(=O)NCCS(=O)(=O)O)C(=O)O (stereo partly shown) [Compound 40]

SMILES: CC[C@H]1c2cc3[nH]c4c(c3C)C(=O)C(C(=O)OC)c4c3nc(cc4[nH]c(cc(n2)[C@@H]1C)c(C(C)=O)c4C)[C@@H](C)[C@@H]3CCC(=O)NC(Cc1ccc(N(CCCl)CCCl)cc1)C(=O)O (stereo partly shown) [Compound 41]
IC50 [2]: 68 nM

SMILES: CC[C@H]1c2cc3[nH]c4c(c3C)C(=O)C(C(=O)OC)c4c3nc(cc4[nH]c(cc(n2)[C@@H]1C)c(C(C)=O)c4C)[C@@H](C)[C@@H]3CCC(=O)NCCNC(=O)OCCSSC[C@H](NC(=O)[C@H](CC(=O)NCCS(=O)(=O)O)NC(=O)CC[C@H](NC(=O)c1ccc(NCc2cnc3nc(N)[nH]c(=O)c3n2)cc1)C(=O)O)C(=O)O (stereo partly shown) [Compound 65c]
EC50 (2 h): 11.6 nM

SMILES: C=CC1=C(C)c2cc3[nH]c(cc4nc(cc5[nH]c(cc1n2)c(C)c5CCC(=O)OC)C(CCC(=O)NNC(=O)OCCSSCC(NC(=O)c1ccc(NCc2cnc5nc(N)[nH]c(=O)c5n2)cc1)C(=O)O)=C4C)[C@@]1(C)C3=CC=C(C(=O)OC)[C@H]1C(=O)OC (stereo partly shown) [Compound 81]
Activity on KB cancer cells in culture, in words: not active | EC50 [3]: Not active*

SMILES: C=CC1=C(C)c2cc3[nH]c(cc4nc(cc5[nH]c(cc1n2)c(C)c5CCC(=O)NNC(=O)OCCSSC[C@H](NC(=O)[C@H](CCCNC(=N)N)NC(=O)C[C@@H](NC(=O)[C@H](CCCNC(=N)N)NC(=O)CC[C@H](NC(=O)c1ccc(NCc2cnc5nc(N)[nH]c(=O)c5n2)cc1)C(=O)O)C(=O)O)C(=O)O)C(CCC(=O)OC)=C4C)[C@]1(C)C3=CC=C(C(=O)OC)[C@@H]1C(=O)OC [Compound 85]
Activity on KB cancer cells in culture, in words: not active | EC50 [3]: Not active*

EC50 (2 h): 6040 nM
SMILES: CC[C@H]1c2cc3[nH]c(c(CC(=O)OC)c4nc(cc5[nH]c(cc(n2)[C@@H]1C)c(C(C)=O)c5C)[C@@H](C)[C@@H]4CCC(=O)NNC(=O)OCCSSC[C@H](NC(=O)CCOCCOCCOCCOCCOCCOCCNC(=O)CC[C@H](NC(=O)c1ccc(NCc2cnc4nc(N)[nH]c(=O)c4n2)cc1)C(=O)O)C(=O)O)c(C(=O)N[N+](C)(C)C)c3C [Compound 87b]

EC50 (2 h): 34.5 nM
SMILES: CC[C@H]1c2cc3[nH]c(c(CC(=O)OC)c4nc(cc5[nH]c(cc(n2)[C@@H]1C)c(C(C)=O)c5C)[C@@H](C)[C@@H]4CCC(=O)NNC(=O)OCCSSC[C@H](NC(=O)CCOCCOCCOCCOCCOCCOCCOCCOCCNC(=O)CC[C@H](NC(=O)c1ccc(NCc2cnc4nc(N)[nH]c(=O)c4n2)cc1)C(=O)O)C(=O)O)c(C(=O)NCCOCCOCCO)c3C [Compound 88a]
Activity class on KB cancer cells in culture (active / highly active): active

SMILES: CC[C@H]1c2cc3[nH]c4c(c3C)C(=O)C(C(=O)OC)c4c3nc(cc4[nH]c(cc(n2)[C@@H]1C)c(C(C)=O)c4C)[C@@H](C)[C@@H]3CCC(=O)N[C@@H](CC(=O)N[N+](C)(C)C)C(=O)NNC(=O)OCCSSC[C@H](NC(=O)C[C@H](NC(=O)CC[C@H](NC(=O)c1ccc(NCc2cnc3nc(N)[nH]c(=O)c3n2)cc1)C(=O)O)C(=O)NCCS(=O)(=O)O)C(=O)O (stereo partly shown) [Compound 95a]
EC50 (2 h): 166 nM

SMILES: CC[C@H]1c2cc3[nH]c4c(c3C)C(=O)C(C(=O)OC)c4c3nc(cc4[nH]c(cc(n2)[C@@H]1C)c(C(C)=O)c4C)[C@@H](C)[C@@H]3CCC(=O)NCCC[C@H](NC(=O)CC[P+](c1ccccc1)(c1ccccc1)c1ccccc1)C(=O)NCCSSC[C@H](NC(=O)[C@H](CC(=O)NCCS(=O)(=O)O)NC(=O)CC[C@H](NC(=O)c1ccc(NCc2cnc3nc(N)[nH]c(=O)c3n2)cc1)C(=O)O)C(=O)O (stereo partly shown) [Compound 99]
EC50 (2 h): 5.3 nM

EC50 (2 h): 159 nM
SMILES: CC[C@H]1c2cc3[nH]c(c(CC(=O)OC)c4nc(cc5[nH]c(cc(n2)[C@@H]1C)c(C(C)=O)c5C)[C@@H](C)[C@@H]4CCC(=O)NCCSSC[C@H](NC(=O)[C@H](CC(=O)NCCS(=O)(=O)O)NC(=O)CC[C@H](NC(=O)c1ccc(NCc2cnc4nc(N)[nH]c(=O)c4n2)cc1)C(=O)O)C(=O)O)c(C(=O)N[N+](C)(C)C)c3C [Compound 101]

SMILES: CC[C@H]1c2cc3[nH]c4c(c3C)C(=O)C(C(=O)OC)c4c3nc(cc4[nH]c(cc(n2)[C@@H]1C)c(C(C)=O)c4C)[C@@H](C)[C@@H]3CCC(=O)NCCSSC[C@H](NC(=O)[C@H](CC(=O)NCCS(=O)(=O)O)NC(=O)[C@H](CC(=O)NCCS(=O)(=O)O)NC(=O)CC[C@H](NC(=O)c1ccc(NCc2cnc3nc(N)[nH]c(=O)c3n2)cc1)C(=O)O)C(=O)O (stereo partly shown) [Compound 105]
EC50 (2 h): 45.3 nM

SMILES: CC[C@H]1c2cc3[nH]c4c(c3C)C(=O)C(C(=O)OC)c4c3nc(cc4[nH]c(cc(n2)[C@@H]1C)c(C(C)=O)c4C)[C@@H](C)[C@@H]3CCC(=O)NCCCC(NC(=O)c1ccc(N(C)Cc2cnc3nc(N)nc(N)c3n2)cc1)C(=O)NNC(=O)OCCSSC[C@H](NC(=O)[C@H](CC(=O)NCCS(=O)(=O)O)NC(=O)CC[C@H](NC(=O)c1ccc(NCc2cnc3nc(N)[nH]c(=O)c3n2)cc1)C(=O)O)C(=O)O (stereo partly shown) [Compound 117]
EC50 (2 h): 2850 nM

SMILES: CC[C@H]1c2cc3[nH]c4c(c3C)C(=O)C(C(=O)OC)c4c3nc(cc4[nH]c(cc(n2)[C@@H]1C)c(C(C)=O)c4C)[C@@H](C)[C@@H]3CCC(=O)N[C@@H](CCC(=O)NCCS(=O)(=O)O)C(=O)NCCNC(=O)OCCSSC[C@H](NC(=O)[C@H](CC(=O)NCCS(=O)(=O)O)NC(=O)CC[C@H](NC(=O)c1ccc(NCc2cnc3nc(N)[nH]c(=O)c3n2)cc1)C(=O)O)C(=O)O (stereo partly shown) [Compound 119]
EC50 (2 h): 538 nM
